As a reminder, the EC50 is the concentration that produces a half-maximal response.

The record followed here is patent US20100197753A1, “Benzamides Useful as S1P Receptor Modulators” (Novartis AG, priority 2007, published 2010).

Holding throughout (format): biochemical
One experiment has as its target T1, human S1P1 receptor (Homo sapiens, UniProt P21453).
T1 construct: expressed in transfected cells; host or cells: CHO-K1 (ATCC CCL 61); RH7777 may also be used
The experiment is described as follows: 35S-GTPγS binding assay (Test 1), S1P1. The following applies: membrane protein of transfected CHO cells, SPA; for EC50: read-out: EC50, receptor subtype S1P1. How it is done:
(§1) Test 1: ^35S-GTPγS Binding Assay
(§2) The S1P receptor modulating properties of an agent of the invention are tested on the human S1P1, S1P2, S1P3, S1P4 and S1P5, respectively, receptor subtypes. The functional receptor activation is assessed by quantifying the compound-induced ^35S-GTPγS binding to membrane protein prepared from transfected heterologous cells stably expressing the appropriate S1P receptor subtype. CHO cells (CHO-K1, Chinese hamster, ATCC no. CCL 61) are used [RH7777 cells (rat Morris hepatoma, ATCC no. CRL 1601) may also be used]. The membrane protein is prepared from wild-type cells and from different cell clones expressing the appropriate S1P receptor subtype. The assay technology used is SPA (scintillation proximity based assay). A DMSO solution of the test compound is serially diluted and added to SPA-bead (Amersham-Pharmacia) immobilised S1P receptor subtype expressing membrane protein (1 to 20 μg/well) in the presence of 50 mM HEPES, 100 mM NaCl, 10 mM MgCl2, 10 μM GDP, 0.1% fat free BSA and 0.2 nM ^35S-GTPγS (1200 Ci/mmol) (pH 7.4). After incubation in 96 well microtiter plates at room temperature for 120 minutes, the unbound ^35S-GTPγS is separated by centrifugation. The luminescence of SPA beads triggered by membrane bound ^35S-GTPγS is quantified with a TOPcount plate reader (Packard). To evaluate the S1P receptor modulation, the stimulation (in %) compared to the baseline is calculated as the binding in the presence of the compound divided by the binding in the absence of a ligand, multiplied by 100. Dose response curves are plotted using a non-linear regression curve fitting program, and the EC50 is defined as the concentration of the compound required to give 50% of its maximum stimulation. Preferably, the EC50 value of an agent of the invention in this test is 10′000 nM or less. The selectivity of the compound towards the S1P receptor subtypes is determined by measuring for each of the different S1P receptor subtypes the level of ^35S-GTPγS binding in the presence of the compound using each of the different membrane proteins.

In another experiment the target is T2, human S1P4 receptor (Homo sapiens, UniProt O95977).
T2 construct: expressed in transfected cells; host or cells: CHO-K1 (ATCC CCL 61); RH7777 may also be used
T2 sequence (O95977 1-384): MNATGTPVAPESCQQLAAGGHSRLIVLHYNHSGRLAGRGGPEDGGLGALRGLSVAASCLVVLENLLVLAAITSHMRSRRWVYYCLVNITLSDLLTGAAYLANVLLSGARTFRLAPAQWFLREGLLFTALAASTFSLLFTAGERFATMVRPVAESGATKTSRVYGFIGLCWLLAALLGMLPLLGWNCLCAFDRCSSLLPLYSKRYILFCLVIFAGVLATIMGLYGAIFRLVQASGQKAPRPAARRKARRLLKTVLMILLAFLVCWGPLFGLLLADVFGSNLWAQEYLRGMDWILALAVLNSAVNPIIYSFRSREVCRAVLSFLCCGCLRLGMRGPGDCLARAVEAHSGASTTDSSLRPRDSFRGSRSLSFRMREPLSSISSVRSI
Briefly: 35S-GTPγS binding assay (Test 1), S1P4. The following applies: membrane protein of transfected CHO cells, SPA; for EC50: read-out: EC50, receptor subtype S1P4. How it is done: as §1, §2
(In general: GTPγS resists hydrolysis and so accumulates on activated G proteins.)

For the next experiment, the target named is T3, human S1P5 receptor (Homo sapiens, UniProt Q9H228).
T3 construct: expressed in transfected cells; host or cells: CHO-K1 (ATCC CCL 61); RH7777 may also be used
T3 sequence (Q9H228 whole entry): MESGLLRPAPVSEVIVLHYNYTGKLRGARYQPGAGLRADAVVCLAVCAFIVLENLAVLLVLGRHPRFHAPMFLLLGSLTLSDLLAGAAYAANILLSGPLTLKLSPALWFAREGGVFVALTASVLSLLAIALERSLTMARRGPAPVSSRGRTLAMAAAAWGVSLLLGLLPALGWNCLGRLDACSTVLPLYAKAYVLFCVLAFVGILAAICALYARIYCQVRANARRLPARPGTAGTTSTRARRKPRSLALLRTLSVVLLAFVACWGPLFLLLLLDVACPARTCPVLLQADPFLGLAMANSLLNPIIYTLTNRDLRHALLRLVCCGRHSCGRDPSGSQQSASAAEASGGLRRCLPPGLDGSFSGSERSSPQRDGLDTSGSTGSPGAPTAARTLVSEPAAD
The experiment is described as follows: 35S-GTPγS binding assay (Test 1), S1P5. The following applies: membrane protein of transfected CHO cells, SPA; for EC50: read-out: EC50, receptor subtype S1P5. On the procedure:
as §1, §2

T1 sequence (P21453 whole entry): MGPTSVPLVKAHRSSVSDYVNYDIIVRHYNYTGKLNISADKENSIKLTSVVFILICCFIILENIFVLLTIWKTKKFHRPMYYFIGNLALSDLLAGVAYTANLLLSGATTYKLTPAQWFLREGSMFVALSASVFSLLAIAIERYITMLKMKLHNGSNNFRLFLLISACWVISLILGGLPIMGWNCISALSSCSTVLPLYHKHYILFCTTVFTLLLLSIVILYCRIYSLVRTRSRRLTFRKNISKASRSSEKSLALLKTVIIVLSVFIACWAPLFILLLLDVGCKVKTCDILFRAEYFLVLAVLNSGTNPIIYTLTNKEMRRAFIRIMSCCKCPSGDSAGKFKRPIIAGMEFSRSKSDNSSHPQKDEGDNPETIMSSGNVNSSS

Turning to `CCCn1nccc1-c1ccc(Nc2c(C)cc(C)cc2C)c(C(N)=O)c1` [Example 27, 5-(2-Propyl-2H-pyrazol-3-yl)-2-(2,4,6-trimethyl-phenylamino)-benzamide], at human S1P1 receptor, the “efficacy, receptor subtype S1P1” value turned out to be 85% and the half-maximal effective concentration (EC50) worked out at 495 nM. In addition, at human S1P4 receptor, the “efficacy, receptor subtype S1P4” value was found to be 130% and the EC50 amounted to 106 nM. On human S1P5 receptor, the “efficacy, receptor subtype S1P5” value is on record as 93% and the half-maximal effective concentration (EC50) turned out to be 25 nM.
Consider `COc1ccc(Nc2c(C)cc(C)cc2C)c(C(N)=O)c1` [Example 36, 5-Methoxy-2-(2,4,6-trimethyl-phenylamino)-benzamide], for which, at human S1P1 receptor, the “efficacy, receptor subtype S1P1” value was found to be 87% and the EC50 stood at 305 nM. Also, at human S1P4 receptor, the “efficacy, receptor subtype S1P4” value turned out to be 126% and the EC50 is 210 nM. Moreover, at human S1P5 receptor, the “efficacy, receptor subtype S1P5” value stood at 64% and the EC50 stood at 80 nM.
With `Cc1cc(C)c(Nc2ccc(Cl)cc2C(N)=O)c(C)c1` [Example 37, 5-Chloro-2-(2,4,6-trimethyl-phenylamino)-benzamide], on human S1P1 receptor, the “efficacy, receptor subtype S1P1” value is recorded as 93% and the half-maximal effective concentration (EC50) was 150 nM. For the same compound, at human S1P4 receptor, the “efficacy, receptor subtype S1P4” value is reported as 109% and the EC50 is 160 nM. For the same compound, at human S1P5 receptor, the “efficacy, receptor subtype S1P5” value is 66% and the concentration for a half-maximal effect (EC50) came to 90 nM.
